Measurements from US9682995B2, “Amino-substituted isothiazoles” (BAYER PHARMA AKTIENGESELLSCHAFT, priority 2013, dated 2017).

How the values were obtained:
Experiment in all cases: Kinase Profiling (KINOMEscan)
Assay type in all cases: binding
[1] = molecular target: 456 kinases (of these 395 non-mutant kinases) (Homo sapiens, UniProt P45983); conditions: JNK1; 10 μM
[2] = molecular target: 456 kinases (of these 395 non-mutant kinases) (Homo sapiens, UniProt Q5S007, G2019S); conditions: LRRK2(G2019S); 10 μM
[3] = molecular target: 456 kinases (of these 395 non-mutant kinases) (Homo sapiens, UniProt Q6XUX3); conditions: RIPK5; 10 μM
[4] = molecular target: 456 kinases (of these 395 non-mutant kinases) (Homo sapiens, UniProt Q9HCP0); conditions: CSNK1G1; 10 μM
[5] = molecular target: 456 kinases (of these 395 non-mutant kinases) (Homo sapiens, UniProt O75116); conditions: ROCK2; 10 μM
[6] = molecular target: 456 kinases (of these 395 non-mutant kinases) (Homo sapiens, UniProt P48729); conditions: CSNK1A1; 10 μM
[7] = molecular target: 456 kinases (of these 395 non-mutant kinases) (Homo sapiens, UniProt P57058); conditions: HUNK; 10 μM
[8] = molecular target: 456 kinases (of these 395 non-mutant kinases) (Homo sapiens, UniProt Q9Y4K4); conditions: MAP4K5; 10 μM
[9] = molecular target: 456 kinases (of these 395 non-mutant kinases) (Homo sapiens, UniProt P10721, T670I/V559D); conditions: KIT(V559D,T670I); 10 μM
[10] = molecular target: 456 kinases (of these 395 non-mutant kinases) (Homo sapiens, UniProt Q8NE63); conditions: HIPK4; 10 μM
[11] = molecular target: 456 kinases (of these 395 non-mutant kinases) (Homo sapiens, UniProt Q13163); conditions: MEK5; 10 μM
[12] = molecular target: 456 kinases (of these 395 non-mutant kinases) (Homo sapiens, UniProt Q9BZL6); conditions: PRKD2; 10 μM
[13] = molecular target: 456 kinases (of these 395 non-mutant kinases) (Homo sapiens, UniProt Q9Y243); conditions: AKT3; 10 μM
[14] = molecular target: 456 kinases (of these 395 non-mutant kinases) (Homo sapiens, UniProt P29597); conditions: 10 μM
[15] = molecular target: 456 kinases (of these 395 non-mutant kinases) (Homo sapiens, UniProt O95835); conditions: LATS1; 10 μM
[16] = molecular target: 456 kinases (of these 395 non-mutant kinases) (Homo sapiens, UniProt O60285); conditions: ARK5; 10 μM
[17] = molecular target: 456 kinases (of these 395 non-mutant kinases) (Homo sapiens, UniProt Q9UPZ9); conditions: ICK; 10 μM
[18] = molecular target: 456 kinases (of these 395 non-mutant kinases) (Homo sapiens, UniProt P43405); conditions: SYK; 10 μM
[19] = molecular target: 456 kinases (of these 395 non-mutant kinases) (Homo sapiens, UniProt P53671); conditions: LIMK2; 10 μM
[20] = molecular target: 456 kinases (of these 395 non-mutant kinases) (Homo sapiens, UniProt P06239); conditions: LCK; 10 μM
[21] = molecular target: 456 kinases (of these 395 non-mutant kinases) (Homo sapiens, UniProt P11802); conditions: 10 μM
[22] = molecular target: 456 kinases (of these 395 non-mutant kinases) (Homo sapiens, UniProt Q9H422); conditions: HIPK3; 10 μM
[23] = molecular target: 456 kinases (of these 395 non-mutant kinases) (Homo sapiens, UniProt Q56UN5); conditions: YSK4; 10 μM
[24] = molecular target: 456 kinases (of these 395 non-mutant kinases) (Homo sapiens, UniProt Q04771); conditions: ACVR1; 10 μM
[25] = molecular target: 456 kinases (of these 395 non-mutant kinases) (Homo sapiens, UniProt P04626); conditions: ERBB2; 10 μM
[26] = molecular target: 456 kinases (of these 395 non-mutant kinases) (Homo sapiens, UniProt Q16539); conditions: p38-alpha; 10 μM
[27] = molecular target: 456 kinases (of these 395 non-mutant kinases) (Homo sapiens, UniProt Q6P3R8); conditions: NEK5; 10 μM
[28] = molecular target: 456 kinases (of these 395 non-mutant kinases) (Homo sapiens, UniProt O75914); conditions: PAK3; 10 μM
[29] = molecular target: 456 kinases (of these 395 non-mutant kinases) (Homo sapiens, UniProt P50613); conditions: CDK7; 10 μM
[30] = molecular target: 456 kinases (of these 395 non-mutant kinases) (Homo sapiens, UniProt O43318); conditions: TAK1; 10 μM
[31] = molecular target: 456 kinases (of these 395 non-mutant kinases) (Homo sapiens, UniProt P16234); conditions: PDGFRA; 10 μM
[32] = molecular target: 456 kinases (of these 395 non-mutant kinases) (Homo sapiens, UniProt O60331); conditions: PIP5K1C; 10 μM

Sequence of 456 kinases (of these 395 non-mutant kinases) (Homo sapiens, UniProt P11802) (P11802 2-303 limits assumed, change not shown): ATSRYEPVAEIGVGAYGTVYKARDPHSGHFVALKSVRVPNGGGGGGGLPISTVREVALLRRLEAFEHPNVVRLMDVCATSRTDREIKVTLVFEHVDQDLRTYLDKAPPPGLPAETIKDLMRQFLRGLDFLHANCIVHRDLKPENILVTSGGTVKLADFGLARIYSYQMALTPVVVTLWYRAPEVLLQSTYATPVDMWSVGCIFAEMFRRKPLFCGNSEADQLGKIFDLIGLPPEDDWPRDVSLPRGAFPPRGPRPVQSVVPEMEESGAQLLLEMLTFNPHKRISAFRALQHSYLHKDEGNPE
Sequence of 456 kinases (of these 395 non-mutant kinases) (Homo sapiens, UniProt Q16539) (Q16539 2-360 limits assumed, change not shown): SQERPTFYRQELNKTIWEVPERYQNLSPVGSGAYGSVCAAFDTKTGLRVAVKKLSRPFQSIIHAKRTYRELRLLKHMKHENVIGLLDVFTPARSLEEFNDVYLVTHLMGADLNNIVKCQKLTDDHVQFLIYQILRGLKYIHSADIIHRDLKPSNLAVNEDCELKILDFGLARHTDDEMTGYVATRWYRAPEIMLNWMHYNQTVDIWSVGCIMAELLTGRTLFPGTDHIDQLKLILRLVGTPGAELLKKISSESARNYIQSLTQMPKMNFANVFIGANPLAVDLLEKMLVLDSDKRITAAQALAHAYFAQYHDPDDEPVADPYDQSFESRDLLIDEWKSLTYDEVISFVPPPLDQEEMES
Sequence of 456 kinases (of these 395 non-mutant kinases) (Homo sapiens, UniProt Q9Y243) (Q9Y243 2-479 limits assumed, change not shown): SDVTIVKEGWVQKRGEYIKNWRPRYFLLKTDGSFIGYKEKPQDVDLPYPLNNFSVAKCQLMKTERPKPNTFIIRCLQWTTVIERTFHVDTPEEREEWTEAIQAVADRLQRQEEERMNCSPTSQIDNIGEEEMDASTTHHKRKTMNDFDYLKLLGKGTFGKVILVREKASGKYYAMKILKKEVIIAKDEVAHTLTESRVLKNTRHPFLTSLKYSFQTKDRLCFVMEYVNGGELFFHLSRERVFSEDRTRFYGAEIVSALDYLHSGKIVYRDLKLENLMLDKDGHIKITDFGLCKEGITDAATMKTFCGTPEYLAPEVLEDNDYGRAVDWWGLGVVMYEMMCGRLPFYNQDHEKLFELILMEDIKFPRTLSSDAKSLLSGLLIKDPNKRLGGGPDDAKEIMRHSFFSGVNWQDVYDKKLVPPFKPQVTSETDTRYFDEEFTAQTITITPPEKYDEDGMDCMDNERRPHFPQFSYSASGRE
Sequence of 456 kinases (of these 395 non-mutant kinases) (Homo sapiens, UniProt P16234) (P16234 24-1089 limits assumed, change not shown): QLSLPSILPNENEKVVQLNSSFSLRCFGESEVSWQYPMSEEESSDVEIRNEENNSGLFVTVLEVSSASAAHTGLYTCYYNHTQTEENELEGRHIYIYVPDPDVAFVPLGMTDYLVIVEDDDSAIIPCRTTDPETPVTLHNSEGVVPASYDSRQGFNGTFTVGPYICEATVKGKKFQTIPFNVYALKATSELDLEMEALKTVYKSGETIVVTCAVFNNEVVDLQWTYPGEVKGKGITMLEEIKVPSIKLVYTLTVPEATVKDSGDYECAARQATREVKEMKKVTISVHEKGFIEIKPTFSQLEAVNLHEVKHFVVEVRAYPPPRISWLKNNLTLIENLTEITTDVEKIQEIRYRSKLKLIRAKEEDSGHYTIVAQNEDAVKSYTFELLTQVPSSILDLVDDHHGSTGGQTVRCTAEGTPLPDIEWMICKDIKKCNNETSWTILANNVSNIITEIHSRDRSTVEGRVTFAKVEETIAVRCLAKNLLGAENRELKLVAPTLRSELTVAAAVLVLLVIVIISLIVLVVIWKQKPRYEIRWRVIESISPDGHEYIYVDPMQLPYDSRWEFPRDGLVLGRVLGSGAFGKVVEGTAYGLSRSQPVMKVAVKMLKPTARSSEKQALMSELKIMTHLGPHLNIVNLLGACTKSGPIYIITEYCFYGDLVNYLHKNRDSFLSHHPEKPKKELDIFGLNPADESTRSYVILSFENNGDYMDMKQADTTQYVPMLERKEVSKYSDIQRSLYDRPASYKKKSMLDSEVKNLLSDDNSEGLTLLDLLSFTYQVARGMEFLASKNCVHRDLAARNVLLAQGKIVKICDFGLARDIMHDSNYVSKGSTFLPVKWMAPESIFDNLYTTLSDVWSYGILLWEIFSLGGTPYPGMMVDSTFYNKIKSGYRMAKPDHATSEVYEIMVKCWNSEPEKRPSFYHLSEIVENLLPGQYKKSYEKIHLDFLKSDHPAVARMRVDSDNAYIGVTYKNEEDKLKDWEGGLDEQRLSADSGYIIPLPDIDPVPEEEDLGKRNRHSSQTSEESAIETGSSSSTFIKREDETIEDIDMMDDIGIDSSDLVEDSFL
Sequence of 456 kinases (of these 395 non-mutant kinases) (Homo sapiens, UniProt P50613) (P50613 2-346 limits assumed, change not shown): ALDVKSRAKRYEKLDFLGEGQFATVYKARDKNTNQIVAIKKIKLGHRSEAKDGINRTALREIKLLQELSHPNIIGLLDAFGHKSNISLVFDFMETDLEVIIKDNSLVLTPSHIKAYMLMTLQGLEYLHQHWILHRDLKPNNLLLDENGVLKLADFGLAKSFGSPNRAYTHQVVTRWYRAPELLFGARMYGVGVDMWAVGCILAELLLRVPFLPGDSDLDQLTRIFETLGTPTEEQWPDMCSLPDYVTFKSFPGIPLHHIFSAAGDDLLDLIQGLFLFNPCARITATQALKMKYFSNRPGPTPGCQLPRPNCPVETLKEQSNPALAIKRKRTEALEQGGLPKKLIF
Sequence of 456 kinases (of these 395 non-mutant kinases) (Homo sapiens, UniProt P04626) (P04626 23-1255 limits assumed, change not shown): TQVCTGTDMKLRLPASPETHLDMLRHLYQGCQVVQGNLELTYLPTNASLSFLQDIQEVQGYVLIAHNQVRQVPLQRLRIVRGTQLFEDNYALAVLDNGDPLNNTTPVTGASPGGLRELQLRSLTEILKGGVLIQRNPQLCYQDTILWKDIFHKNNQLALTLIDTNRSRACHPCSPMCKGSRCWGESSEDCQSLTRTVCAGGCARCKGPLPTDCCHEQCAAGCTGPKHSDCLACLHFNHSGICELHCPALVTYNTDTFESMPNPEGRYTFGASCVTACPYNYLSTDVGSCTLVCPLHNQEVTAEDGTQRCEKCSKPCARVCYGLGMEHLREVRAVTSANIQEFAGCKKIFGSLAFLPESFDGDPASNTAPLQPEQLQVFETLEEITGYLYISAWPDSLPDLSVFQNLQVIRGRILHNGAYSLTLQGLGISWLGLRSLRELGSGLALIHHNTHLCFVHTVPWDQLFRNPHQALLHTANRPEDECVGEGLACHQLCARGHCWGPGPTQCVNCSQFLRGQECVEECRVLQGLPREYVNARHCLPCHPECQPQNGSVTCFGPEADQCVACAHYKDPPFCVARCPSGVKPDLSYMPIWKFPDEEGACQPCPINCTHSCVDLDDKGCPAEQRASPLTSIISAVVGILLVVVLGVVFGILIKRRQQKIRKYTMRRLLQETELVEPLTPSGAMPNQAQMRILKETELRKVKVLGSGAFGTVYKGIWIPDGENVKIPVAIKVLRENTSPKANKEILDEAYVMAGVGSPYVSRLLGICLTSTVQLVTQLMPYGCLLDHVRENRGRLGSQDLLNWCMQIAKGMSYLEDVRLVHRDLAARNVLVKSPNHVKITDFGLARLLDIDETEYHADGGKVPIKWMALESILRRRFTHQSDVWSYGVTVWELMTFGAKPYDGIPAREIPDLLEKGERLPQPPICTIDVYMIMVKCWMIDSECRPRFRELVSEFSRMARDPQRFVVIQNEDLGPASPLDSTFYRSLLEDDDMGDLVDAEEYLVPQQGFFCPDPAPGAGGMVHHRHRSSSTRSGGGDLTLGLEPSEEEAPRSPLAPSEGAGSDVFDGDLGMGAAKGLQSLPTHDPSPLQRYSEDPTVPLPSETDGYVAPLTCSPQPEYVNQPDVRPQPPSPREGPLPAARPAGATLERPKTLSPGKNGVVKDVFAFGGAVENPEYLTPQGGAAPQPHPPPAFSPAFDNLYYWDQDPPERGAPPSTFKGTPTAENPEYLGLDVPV
Sequence of 456 kinases (of these 395 non-mutant kinases) (Homo sapiens, UniProt P48729) (P48729 2-337 limits assumed, change not shown): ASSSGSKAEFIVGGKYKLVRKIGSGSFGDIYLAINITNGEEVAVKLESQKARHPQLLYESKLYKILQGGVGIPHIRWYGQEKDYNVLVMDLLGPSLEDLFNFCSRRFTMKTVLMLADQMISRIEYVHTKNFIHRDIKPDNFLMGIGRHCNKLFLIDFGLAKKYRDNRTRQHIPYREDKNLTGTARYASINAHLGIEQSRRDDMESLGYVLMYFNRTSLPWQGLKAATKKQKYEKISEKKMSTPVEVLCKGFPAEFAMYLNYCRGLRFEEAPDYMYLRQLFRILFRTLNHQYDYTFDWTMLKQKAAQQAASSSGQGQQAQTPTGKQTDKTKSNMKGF
Sequence of 456 kinases (of these 395 non-mutant kinases) (Homo sapiens, UniProt P06239) (P06239 2-509 limits assumed, change not shown): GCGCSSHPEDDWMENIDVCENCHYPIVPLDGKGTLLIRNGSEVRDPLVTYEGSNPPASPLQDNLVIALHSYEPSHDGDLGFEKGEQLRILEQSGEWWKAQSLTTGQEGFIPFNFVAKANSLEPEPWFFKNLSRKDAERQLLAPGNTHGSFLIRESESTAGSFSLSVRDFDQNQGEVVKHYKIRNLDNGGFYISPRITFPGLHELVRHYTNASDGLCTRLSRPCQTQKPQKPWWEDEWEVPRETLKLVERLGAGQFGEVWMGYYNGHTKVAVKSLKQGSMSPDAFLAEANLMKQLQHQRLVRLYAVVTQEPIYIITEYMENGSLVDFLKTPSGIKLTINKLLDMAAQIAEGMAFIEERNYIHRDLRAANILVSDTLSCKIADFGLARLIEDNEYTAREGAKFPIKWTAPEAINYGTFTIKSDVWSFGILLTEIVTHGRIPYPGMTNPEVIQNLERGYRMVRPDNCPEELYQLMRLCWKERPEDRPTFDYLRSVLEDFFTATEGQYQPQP

CCc1ccccc1NC(=O)c1c(C)nsc1Nc1cnc2cc(F)ccc2n1 [Example 20, N-(2-Ethylphenyl)-5-[(6-fluoroquinoxalin-2-yl)amino]-3-methyl-1,2-thiazole-4-carboxamide]
% Ctrl @ 10 μM [1]: 100 % Ctrl | % Ctrl @ 10 μM [2]: 92 % Ctrl | % Ctrl @ 10 μM [3]: 100 % Ctrl | % Ctrl @ 10 μM [4]: 90 % Ctrl | % Ctrl @ 10 μM [5]: 100 % Ctrl | % Ctrl @ 10 μM [6]: 92 % Ctrl | % Ctrl @ 10 μM [7]: 93 % Ctrl | % Ctrl @ 10 μM [8]: 89 % Ctrl | % Ctrl @ 10 μM [9]: 100 % Ctrl | % Ctrl @ 10 μM [10]: 97 % Ctrl | % Ctrl @ 10 μM [11]: 100 % Ctrl | % Ctrl @ 10 μM [12]: 91 % Ctrl | % Ctrl @ 10 μM [13]: 100 % Ctrl | % Ctrl @ 10 μM ([14]; TYK2(JH1domain-catalytic)): 100 % Ctrl | % Ctrl @ 10 μM ([14]; TYK2(JH2domain-pseudokinase)): 100 % Ctrl | % Ctrl @ 10 μM [15]: 100 % Ctrl | % Ctrl @ 10 μM [16]: 85 % Ctrl | % Ctrl @ 10 μM [17]: 100 % Ctrl | % Ctrl @ 10 μM [18]: 90 % Ctrl | % Ctrl @ 10 μM [19]: 94 % Ctrl | % Ctrl @ 10 μM [20]: 94 % Ctrl | % Ctrl @ 10 μM ([21]; CDK4-cyclinD1): 85 % Ctrl | % Ctrl @ 10 μM ([21]; CDK4-cyclinD3): 93 % Ctrl | % Ctrl @ 10 μM [22]: 96 % Ctrl | % Ctrl @ 10 μM [23]: 100 % Ctrl | % Ctrl @ 10 μM [24]: 77 % Ctrl | % Ctrl @ 10 μM [25]: 77 % Ctrl | % Ctrl @ 10 μM [26]: 90 % Ctrl | % Ctrl @ 10 μM [27]: 100 % Ctrl | % Ctrl @ 10 μM [28]: 100 % Ctrl | % Ctrl @ 10 μM [29]: 92 % Ctrl | % Ctrl @ 10 μM [30]: 100 % Ctrl | % Ctrl @ 10 μM [31]: 100 % Ctrl | % Ctrl @ 10 μM [32]: 100 % Ctrl
